# In patent US6486098B1, “Herbicidal phenoxypropionic acid N-alkyl-N-2-fluorophenyl amide compounds” (Dongbu Hannong Chemical Co. Ltd., priority 1999, dated 2002):
# What was measured:
# DIGSA (Large crabgrass) = test: Leaf treatment test, large crabgrass; format: in vivo, Digitaria Sanguinalis (L.) SCOP; conditions: 14 days after treatment
# Procedure: (§1) Seeds of rice, wheat, barley, corn, cotton, barnyard grass, common sorgum, large crabgrass and fall panicum were seeded at a pot with a surface area of 600 cm^2. […] 14 days after the treatment, the degree of damage to the plants was rated in % damage in comparison to the development of untreated control.
# PANDI (Fall panicum) = test: Leaf treatment test, fall panicum; format: in vivo, Panicum dichotomiflorum Michx; conditions: 14 days after treatment
# Procedure: as §1
# TRZAW (Wheat) = test: Leaf treatment test, wheat; format: in vivo, Triticum aestivum L.; conditions: 14 days after treatment
# Procedure: as §1
# GOSHI (Cotton) = test: Leaf treatment test, cotton; format: in vivo, Gossypium; conditions: 14 days after treatment
# Procedure: as §1
# ORYSA (Rice) = test: Leaf treatment test, rice; format: in vivo, Oryza sativa L. cv. Dongjin; conditions: 14 days after treatment
# Procedure: as §1
# ZEAMX (Corn) = test: Leaf treatment test, corn; format: in vivo, Zea mays L.; conditions: 14 days after treatment
# Procedure: as §1
# SORBI (Common sorgum) = test: Leaf treatment test, common sorgum; format: in vivo, Andropogon sorghum; conditions: 14 days after treatment
# Procedure: as §1
# GLXMA (Soy bean) = test: Leaf treatment test, soy bean; format: in vivo, Glycine max (L.) MERR; conditions: 14 days after treatment
# ECHCG (Barnyard grass) = test: Leaf treatment test, barnyard grass; format: in vivo, Echinochloa crus-galli Beauv. var. caudata Kitagawa; conditions: leaf treatment at three leaves, 14 days after treatment
# Procedure: as §1
SMILES,degree of damage to the plants (% damage) (DIGSA (Large crabgrass); treated amount 0.025 kg/ha) [%],degree of damage to the plants (% damage) (DIGSA (Large crabgrass); treated amount 0.1 kg/ha) [%],degree of damage to the plants (% damage) (DIGSA (Large crabgrass); treated amount 0.4 kg/ha) [%],degree of damage to the plants (% damage) (PANDI (Fall panicum); treated amount 0.025 kg/ha) [%],degree of damage to the plants (% damage) (PANDI (Fall panicum); treated amount 0.1 kg/ha) [%],degree of damage to the plants (% damage) (PANDI (Fall panicum); treated amount 0.4 kg/ha) [%],degree of damage to the plants (% damage) (TRZAW (Wheat); treated amount 0.025 kg/ha) [%],degree of damage to the plants (% damage) (TRZAW (Wheat); treated amount 0.1 kg/ha) [%],degree of damage to the plants (% damage) (TRZAW (Wheat); treated amount 0.4 kg/ha) [%],degree of damage to the plants (% damage) (GOSHI (Cotton); treated amount 0.025 kg/ha) [%],degree of damage to the plants (% damage) (GOSHI (Cotton); treated amount 0.1 kg/ha) [%],degree of damage to the plants (% damage) (GOSHI (Cotton); treated amount 0.4 kg/ha) [%],degree of damage to the plants (% damage) (ORYSA (Rice); treated amount 0.025 kg/ha) [%],degree of damage to the plants (% damage) (ORYSA (Rice); treated amount 0.1 kg/ha) [%],degree of damage to the plants (% damage) (ORYSA (Rice); treated amount 0.4 kg/ha) [%],degree of damage to the plants (% damage) (ZEAMX (Corn); treated amount 0.025 kg/ha) [%],degree of damage to the plants (% damage) (ZEAMX (Corn); treated amount 0.1 kg/ha) [%],degree of damage to the plants (% damage) (ZEAMX (Corn); treated amount 0.4 kg/ha) [%],degree of damage to the plants (% damage) (SORBI (Common sorgum); treated amount 0.025 kg/ha) [%],degree of damage to the plants (% damage) (SORBI (Common sorgum); treated amount 0.1 kg/ha) [%],also measured
CCN(C(=O)C(C)Oc1ccc(Oc2nc3ccc(Cl)cc3o2)cc1)c1ccccc1F (stereo not drawn) [Compound No. 2],30,95,100,0,100,100,0,0,0,0,0,0,0,0,0,5,10,70,40,95,degree of damage to the plants (% damage) (SORBI (Common sorgum); treated amount 0.4 kg/ha): 100%; degree of damage to the plants (% damage) (GLXMA (Soy bean); treated amount 0.025 kg/ha): 0%; degree of damage to the plants (% damage) (GLXMA (Soy bean); treated amount 0.1 kg/ha): 0%; degree of damage to the plants (% damage) (GLXMA (Soy bean); treated amount 0.4 kg/ha): 10%; degree of damage to the plants (% damage) (ECHCG (Barnyard grass); treated amount 0.025 kg/ha): 20%; degree of damage to the plants (% damage) (ECHCG (Barnyard grass); treated amount 0.1 kg/ha): 80%; degree of damage to the plants (% damage) (ECHCG (Barnyard grass); treated amount 0.4 kg/ha): 95%
"CC(Oc1ccc(Oc2nc3ccc(Cl)cc3o2)cc1)C(=O)N(C)c1cc(F)c(F)cc1F (stereo not drawn) [Compound No. 3, 2-[4-(6-Chloro-2-benzoxazoyloxy)-phenoxy]propionic Acid-N-methyl-N-(2,4,5-trifluorophenyl)amide]",30,90,100,0,0,0,0,0,0,0,0,0,0,0,10,0,0,0,40,100,degree of damage to the plants (% damage) (SORBI (Common sorgum); treated amount 0.4 kg/ha): 100%; degree of damage to the plants (% damage) (GLXMA (Soy bean); treated amount 0.025 kg/ha): 0%; degree of damage to the plants (% damage) (GLXMA (Soy bean); treated amount 0.1 kg/ha): 0%; degree of damage to the plants (% damage) (GLXMA (Soy bean); treated amount 0.4 kg/ha): 10%; degree of damage to the plants (% damage) (ECHCG (Barnyard grass); treated amount 0.025 kg/ha): 0%; degree of damage to the plants (% damage) (ECHCG (Barnyard grass); treated amount 0.1 kg/ha): 60%; degree of damage to the plants (% damage) (ECHCG (Barnyard grass); treated amount 0.4 kg/ha): 95%
"CC(Oc1ccc(Oc2nc3ccc(Cl)cc3o2)cc1)C(=O)N(C)c1c(F)cccc1F (stereo not drawn) [Compound No. 4, 2-[4-(6-Chloro-2-benzoxazoyloxy)-phenoxy]propionic Acid-N-methyl-N-(2,6-difluoro-phenyl)amide]",90,100,100,40,100,100,0,0,0,0,0,0,0,20,30,10,40,100,95,100,degree of damage to the plants (% damage) (SORBI (Common sorgum); treated amount 0.4 kg/ha): 100%; degree of damage to the plants (% damage) (GLXMA (Soy bean); treated amount 0.025 kg/ha): 0%; degree of damage to the plants (% damage) (GLXMA (Soy bean); treated amount 0.1 kg/ha): 0%; degree of damage to the plants (% damage) (GLXMA (Soy bean); treated amount 0.4 kg/ha): 20%; degree of damage to the plants (% damage) (ECHCG (Barnyard grass); treated amount 0.025 kg/ha): 80%; degree of damage to the plants (% damage) (ECHCG (Barnyard grass); treated amount 0.1 kg/ha): 95%; degree of damage to the plants (% damage) (ECHCG (Barnyard grass); treated amount 0.4 kg/ha): 100%
